Test results: US9696296B2, “Targeting c-Rel O-GlcNAcylation and uses thereof” (California Institute of Technology, priority 2013, dated 2017)
Values belong to the compound of their own block, whether it stands above or below them.

Key:
Assay type in all cases: cell-based, human
c-Rel [1] = assay: c-Rel O-GlcNAcylation, immunoprecipitation and anti-O-GlcNAc western blot; conditions: Jurkat cells, 30 mM glucose, PUGNAc 100 μM for 3 hrs
[2] = test system: c-Rel binding CD28RE region; assay: Electrophoretic mobility shift assay, anti-CD3/CD28-induced binding of nuclear extracts to CD28RE probe
Method: Jurkat cells were cultured at 1.5×10^6 cells/ml in 6-well plates or 10 cm plates in the presence of 1 μg/ml of Doxycycline for 22 hours for the induction of FLAG-c-Rel. Cells were stimulated for the indicated time points (3 hours) with plate bound anti-CD3 and anti-CD28 (2 μg/ml each). […] PLCγ, Lamin and SP1 were used as loading controls. Cytoplasmic and nuclear extracts were also prepared after culturing in the presence of 1 μg/ml of Doxycycline for 22 hours for the induction of FLAG-c-Rel. FLAG-c-Rel was immunoprecipitated and analyzed with anti-O-GlcNAc antibody.
Nuclear protein extracts were prepared as described^7. Nuclear extracts corresponding to 4-6 μg of protein were tested for DNA binding using the probes containing c-Rel binding CD28RE region and p65 binding IL2-κB region. OCT1 probe was used as a control. In the probe containing CD28RE-NF-IL-2B AP-1 region, the AP site was mutated as previously described to restrict the protein binding only to the CD28RE site in our assays. (Shapiro et al. Mol Cell Biol 17:4051-4058 (1997).) Lysates were incubated with [^32P] γATP labeled probe in the binding buffer (Tris-Cl 10 mM, pH 7.5, Nacl 50 mM, glycerol 4%, MgCl2 1 mM, EDTA 0.1 mM, poly(dI-dC) 50 μg/ml, and 0.1 mM DTT) for 20 min at room temperature. […] Samples were separated in 5% non-denaturing polyacrylamide gel and analyzed by autoradiography.

Jurkat cells = assay: anti-CD3/CD28-induced c-Rel dependent gene expression by quantitative real time PCR
Method: Jurkat cells were treated with PUGNAc (100 μM) for 12 hours and then treated with plate bound anti-CD3/CD28 (2 μg/ml) for 3 hours. Some cells were additionally treated overnight with Streptozotocin (STZ, 2 mM) prior to PUGNAc treatment. Gene expression was analyzed by quantitative real time PCR. In other cases, Jurkat T-REx cell clones expressing wild-type and mutant c-Rel were induced with doxycycline for 22 hrs, treated with PUGNAc overnight and then treated with anti-CD3/C28 for 3 hrs.
DNA-free RNA was prepared using the RNeasy Mini Kit according to the manufacturer's instructions (Qiagen). cDNA was synthesized from 0.5-1.0 μg total RNA using random hexamers (Promega) and Superscript III reverse transcriptase first-strand synthesis kit (Invitrogen, Carlsbad, Calif.). Quantitative real time PCR using cDNA corresponding to 20-60 ng of total RNA and Taqman Gene Expression Assays (Applied Biosystems, Foster City, Calif.) was performed in a Real-Time PCR machine (Realplex, Eppendorf) according to the manufacturer's instructions. The results obtained for individual genes were normalized to the expression of TFR for human genes and UBE2D2 for mouse genes. Quantitative real time PCR (qPCR) was performed at least in three independent experiments in triplicates and the relative levels of indicated genes were calculated with respect to the expression of transferrin receptor. Statistical significance was determined by two-tailed unpaired Student's t test and represented as mean±SEM.

Jurkat T-REx cell clones = assay: TNF-induced NF-κB-dependent gene expression by qPCR; conditions: TNF 100 ng/ml 3 hrs, PUGNAc overnight
Method: Cells were treated with TNF (100 ng/ml) for 3 hrs. Jurkat T-REx cell clones expressing wild-type and mutant c-Rel were induced with doxycycline for 22 hrs, treated with PUGNAc overnight and then treated with anti-CD3/C28 for 3 hrs. Quantitative real time PCR (qPCR) was performed at least in three independent experiments in triplicates and the relative levels of indicated genes were calculated with respect to the expression of transferrin receptor. Statistical significance was determined by two-tailed unpaired Student's t test and represented as mean±SEM.

c-Rel [3] = assay: TNF-induced nuclear translocation assay, c-Rel; conditions: Jurkat cells, PUGNAc overnight then TNF
Method: (§1) Jurkat cells were treated overnight with PUGNAc and then with TNF. Nuclear extracts were analyzed for c-Rel and p65 nuclear translocation. p105 was used as the loading control.

p65 = assay: TNF-induced nuclear translocation assay, p65; conditions: Jurkat cells, PUGNAc overnight then TNF
Method: as §1

[4] = Jurkat cells, PUGNAc 100 μM 12 hours, then anti-CD3/CD28 3 hours

- anti-CD3/CD28-induced CD28RE DNA binding ([2]; PUGNAc and high glucose treatment): significantly increased
Compound: CC(=O)N[C@H]1/C(=N/OC(=O)Nc2ccccc2)O[C@H](CO)[C@@H](O)[C@@H]1O [PUGNAc, O-(2-acetamido-2-deoxy-D-glucopyranosylidene)amino-N-phenylcarbamate]
- O-GlcNAcylation of c-Rel (c-Rel [1]): further enhanced the O-GlcNAcylation of c-Rel
- expression of c-Rel-dependent genes in wild-type versus mutant c-Rel cells (Jurkat cells; Jurkat T-REx clones expressing wild-type or S350A c-Rel, PUGNAc overnight, anti-CD3/CD28 3 hrs): significantly potentiated the expression of c-Rel-dependent genes only in wild-type c-Rel expressing cells
- anti-CD3/CD28-induced expression of GMCSF (Jurkat cells; [4]): significantly potentiated
- anti-CD3/CD28-induced expression of IL-2 (Jurkat cells; [4]): significantly potentiated
- TCR-induced expression of A20 and IκBα (Jurkat cells; PUGNAc treatment): did not observe any effect
- TNF-induced expression of A20 (Jurkat T-REx cell clones): neither affected
- TNF-induced expression of IκBα (Jurkat T-REx cell clones): neither affected
- TNF induced c-Rel nuclear translocation (c-Rel [3]): no effect
- TNF-induced nuclear p65 levels (p65): decreased

Compound: CN(N=O)C(=O)N[C@H]1C(O)O[C@H](CO)[C@@H](O)[C@@H]1O (mixture of isomers) [Streptozotocin]
- anti-CD3/CD28-induced c-Rel-dependent gene expression (GMCSF) (Jurkat cells; STZ 2 mM overnight): enhanced

Compound: [N-]=[N+]=CC(=O)CC[C@H](N)C(=O)O [DON, 6-diazo-5-oxo-L-norleucine]
- anti-CD3/CD28-induced CD28RE binding of nuclear extracts ([2]; wild-type c-Rel expressing Jurkat cells, DON overnight): decreased
